From patent US6358885B1, “Substituted phenylheterocyclic herbicides” (Mississippi State University, priority 1992, dated 2002)

Tests used:
chickweed = assay: Test B preemergence/postemergence greenhouse plant response rating 0 to 10; type: in vivo, Stellaria media; settings: 0 to 10 scale
Outline: (§1)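 Planted seeds are treated preemergence with compound dissolved in a non-phytotoxic solvent, while postemergence applications go onto plants of two to eighteen cm. Plants stay in the greenhouse twelve to sixteen days and are then rated visually relative to controls.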

sugar beet = assay: as above; type: in vivo, Beta vulgaris; settings: 0 to 10 scale
Outline: as §1

bedstraw = assay: Test C preemergence/postemergence greenhouse plant response rating 0 to 100; type: in vivo, Galium aparine; settings: POSTEMERGENCE; for Plant response rating, Bedstraw: 0 to 100 scale
Outline: (§2)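 Compounds in non-phytotoxic solvent went onto sandy loam before emergence (seeded one day earlier) or onto plants at the one-to-four leaf stage. Duck salad was treated via flood water (~2.5 cm, maintained) over silt loam.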

barley = assay: Test B preemergence/postemergence greenhouse plant response rating 0 to 10; type: in vivo, Hordeum vulgare; settings: 0 to 10 scale
Outline: as §1

corn [1] = assay: Test C preemergence/postemergence greenhouse plant response rating 0 to 100; type: in vivo, Zea mays; settings: POSTEMERGENCE; for Plant response rating, Corn: 0 to 100 scale
Outline: as §2

rice = assay: Test C flood test plant response rating 0 to 100; type: in vivo, Oryza sativa; settings: for Plant response rating (0 to 100), Rice Japonica: under POSTEMERGENCE head (flood test species); for Plant response rating Rice Japonica: flood test species listed under POSTEMERGENCE, 0 to 100 scale
Outline: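 Compounds in non-phytotoxic solvent applied preemergence to sandy loam one day after planting, postemergence at the 1–4 leaf stage, or to ~2.5 cm floodwater over silt loam.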

blackgrass = assay: Test B preemergence/postemergence greenhouse plant response rating 0 to 10; type: in vivo, Alopecurus myosuroides; settings: 0 to 10 scale
Outline: as §1

barnyardgrass = assay: as above; type: in vivo, Echinochloa crus-galli; settings: 0 to 10 scale
Outline: as §1

rape = assay: Test C preemergence/postemergence greenhouse plant response rating 0 to 100; type: in vivo, Brassica napus; settings: POSTEMERGENCE; for Plant response rating, Rape: 0 to 100 scale
Outline: as §2

corn [2] = assay: Test B preemergence/postemergence greenhouse plant response rating 0 to 10; type: in vivo, Zea mays; settings: 0 to 10 scale
Outline: as §1

ryegrass = assay: Test C preemergence/postemergence greenhouse plant response rating 0 to 100; type: in vivo, Lolium multiflorum; settings: POSTEMERGENCE; for Plant response rating Ryegrass: 0 to 100 scale
Outline: as §2

purple nutsedge = assay: Test B preemergence/postemergence greenhouse plant response rating 0 to 10; type: in vivo, Cyperus rotundus; settings: 0 to 10 scale
Outline: as §1

sorghum = assay: as above; type: in vivo, Sorghum bicolor; settings: 0 to 10 scale
Outline: as §1

crabgrass = assay: Test C preemergence/postemergence greenhouse plant response rating 0 to 100; type: in vivo, Digitaria sanguinalis; settings: POSTEMERGENCE; for Plant response rating, Crabgrass: 0 to 100 scale
Outline: as §2

wild oat = assay: as above; type: in vivo, Avena fatua; settings: POSTEMERGENCE; for Plant response rating, Wild oat: 0 to 100 scale
Outline: as §2

wheat = assay: as above; type: in vivo, Triticum aestivum; settings: POSTEMERGENCE; for Plant response rating, Wheat: 0 to 100 scale
Outline: as §2

morningglory = assay: as above; type: in vivo, Ipomoea hederacea; settings: POSTEMERGENCE; for Plant response rating, Morningglory: 0 to 100 scale
Outline: as §2

velvetleaf = assay: Test B preemergence/postemergence greenhouse plant response rating 0 to 10; type: in vivo, Abutilon theophrasti; settings: 0 to 10 scale
Outline: as §1

C=CCN1C(=O)COc2cc(F)c(-c3nn4c(c3Br)CCCC4)cc21 [Compound 41]
Plant response rating, Chickweed (chickweed; POSTEMERGENCE, Rate 50 g/ha): 10 | Plant response rating, Chickweed (chickweed; POSTEMERGENCE, Rate 200 g/ha): 10 | Plant response rating, Chickweed (chickweed; PREEMERGENCE, Rate 50 g/ha): 10 | Plant response rating, Chickweed (chickweed; Rate 200 g/ha, PREEMERGENCE): 10 | Plant response rating, Sugar beet (sugar beet; POSTEMERGENCE, Rate 50 g/ha): 10 | Plant response rating, Sugar beet (sugar beet; PREEMERGENCE, Rate 50 g/ha): 10 | Plant response rating, Sugar beet (sugar beet; Rate 200 g/ha, POSTEMERGENCE): 10 | Plant response rating, Sugar beet (sugar beet; Rate 200 g/ha, PREEMERGENCE): 10 | Plant response rating, Bedstraw (bedstraw; 62 g/ha): 80 | Plant response rating, Bedstraw (bedstraw; 125 g/ha): 90 | Plant response rating (0 to 100), Bedstraw (bedstraw; Rate 16 g/ha): 70 | Plant response rating (0 to 100), Bedstraw (bedstraw; Rate 31 g/ha): 70 | Plant response rating, Barley (barley; POSTEMERGENCE, Rate 50 g/ha): 5 | Plant response rating, Barley (barley; POSTEMERGENCE, Rate 200 g/ha): 5 | Plant response rating, Barley (barley; PREEMERGENCE, Rate 50 g/ha): 1 | Plant response rating, Barley (barley; Rate 200 g/ha, PREEMERGENCE): 1 | Plant response rating, Corn (corn [1]; 62 g/ha): 40 | Plant response rating, Corn (corn [1]; 125 g/ha): 50 | Plant response rating (0 to 100), Corn (corn [1]; Rate 16 g/ha): 40 | Plant response rating (0 to 100), Corn (corn [1]; Rate 31 g/ha): 40 | Plant response rating (0 to 100), Rice Japonica (rice; Rate 16 g/ha): 45 | Plant response rating (0 to 100), Rice Japonica (rice; Rate 31 g/ha): 65 | Plant response rating Rice Japonica (rice; 62 g/ha): 80 | Plant response rating Rice Japonica (rice; 125 g/ha): 85 | Plant response rating, Blackgrass (blackgrass; POSTEMERGENCE, Rate 50 g/ha): 2 | Plant response rating, Blackgrass (blackgrass; POSTEMERGENCE, Rate 200 g/ha): 5 | Plant response rating, Blackgrass (blackgrass; PREEMERGENCE, Rate 50 g/ha): 6 | Plant response rating, Blackgrass (blackgrass; Rate 200 g/ha, PREEMERGENCE): 7 | Plant response rating, Barnyardgrass (barnyardgrass; POSTEMERGENCE, Rate 50 g/ha): 3 | Plant response rating, Barnyardgrass (barnyardgrass; POSTEMERGENCE, Rate 200 g/ha): 6 | Plant response rating, Barnyardgrass (barnyardgrass; PREEMERGENCE, Rate 50 g/ha): 4 | Plant response rating, Barnyardgrass (barnyardgrass; Rate 200 g/ha, PREEMERGENCE): 6 | Plant response rating, Rape (rape; 62 g/ha): 100 | Plant response rating, Rape (rape; 125 g/ha): 100 | Plant response rating (0 to 100), Rape (rape; Rate 16 g/ha): 95 | Plant response rating (0 to 100), Rape (rape; Rate 31 g/ha): 100 | Plant response rating, Corn (corn [2]; POSTEMERGENCE, Rate 200 g/ha): 5 | Plant response rating, Corn (corn [2]; PREEMERGENCE, Rate 50 g/ha): 0 | Plant response rating, Corn (corn [2]; Rate 200 g/ha, PREEMERGENCE): 2 | Plant response rating Ryegrass (ryegrass; 62 g/ha): 30 | Plant response rating Ryegrass (ryegrass; 125 g/ha): 40 | Plant response rating (0 to 100), Ryegrass (ryegrass; Rate 16 g/ha): 10 | Plant response rating (0 to 100), Ryegrass (ryegrass; Rate 31 g/ha): 20 | Plant response rating, Nutsedge (purple nutsedge; POSTEMERGENCE, Rate 50 g/ha): 4 | Plant response rating, Nutsedge (purple nutsedge; PREEMERGENCE, Rate 50 g/ha): 0 | Plant response rating, Nutsedge (purple nutsedge; Rate 200 g/ha, POSTEMERGENCE): 4 | Plant response rating, Nutsedge (purple nutsedge; Rate 200 g/ha, PREEMERGENCE): 0 | Plant response rating, Sorghum (sorghum; POSTEMERGENCE, Rate 50 g/ha): 5 | Plant response rating, Sorghum (sorghum; PREEMERGENCE, Rate 50 g/ha): 0 | Plant response rating, Sorghum (sorghum; Rate 200 g/ha, POSTEMERGENCE): 6 | Plant response rating, Sorghum (sorghum; Rate 200 g/ha, PREEMERGENCE): 1 | Plant response rating, Crabgrass (crabgrass; 62 g/ha): 20 | Plant response rating, Crabgrass (crabgrass; 125 g/ha): 30 | Plant response rating (0 to 100), Crabgrass (crabgrass; Rate 16 g/ha): 10 | Plant response rating (0 to 100), Crabgrass (crabgrass; Rate 31 g/ha): 10 | Plant response rating, Wild oat (wild oat; 62 g/ha): 40 | Plant response rating, Wild oat (wild oat; 125 g/ha): 50 | Plant response rating (0 to 100), Wild oat (wild oat; Rate 16 g/ha): 20 | Plant response rating (0 to 100), Wild oat (wild oat; Rate 31 g/ha): 30 | Plant response rating, Wheat (wheat; 62 g/ha): 50 | Plant response rating, Wheat (wheat; 125 g/ha): 60 | Plant response rating (0 to 100), Wheat (wheat; Rate 16 g/ha): 40 | Plant response rating (0 to 100), Wheat (wheat; Rate 31 g/ha): 50 | Plant response rating, Morningglory (morningglory; 62 g/ha): 100 | Plant response rating, Morningglory (morningglory; 125 g/ha): 100 | Plant response rating (0 to 100), Morningglory (morningglory; Rate 16 g/ha): 70 | Plant response rating (0 to 100), Morningglory (morningglory; Rate 31 g/ha): 100 | Plant response rating, Velvetleaf (velvetleaf; POSTEMERGENCE, Rate 50 g/ha): 10 | Plant response rating, Velvetleaf (velvetleaf; PREEMERGENCE, Rate 50 g/ha): 2 | Plant response rating, Velvetleaf (velvetleaf; Rate 200 g/ha, POSTEMERGENCE): 10 | Plant response rating, Velvetleaf (velvetleaf; Rate 200 g/ha, PREEMERGENCE): 10
